Measurements: patent US10925856B2, “Methods and compositions involving bucindolol for the treatment of atrial fibrillation” (priority 2018, dated 2021)

Experiments:
NT-proBNP = assay: Plasma NT-proBNP (electrochemiluminescence immunoassay)
[1] = tested on: patients with HF and/or AF; conditions: cited from earlier work
[2] = Europe excluding Hungary (n = 48)
[3] = change from baseline, Canada (n = 59)
[4] = change from baseline, Entire Cohort (n = 267)
[5] = change from baseline, Europe excluding Hungary (n = 48)
[6] = change from baseline, Hungary (n = 33)
[7] = change from baseline, U.S. (n = 127)

COCCc1ccc(OCC(O)CNC(C)C)cc1 (centres unmarked) [metoprolol, metoprolol succinate, reference compound]
NT-proBNP, Week 4 Mean (NT-proBNP; Canada): 1715 pg/mL | NT-proBNP, Week 4 Median (NT-proBNP; Canada): 1067 pg/mL | NT-proBNP, ΔWeek 4 Mean ± SEM (NT-proBNP; Canada): -91 pg/mL | NT-proBNP, ΔWeek 4 Median (NT-proBNP; Canada): -101 pg/mL | NT-proBNP, Baseline Mean ± SD (NT-proBNP; Canada (n = 59)): 1646 ± 2303 pg/mL | NT-proBNP, Baseline Median (NT-proBNP; Canada (n = 59)): 913 pg/mL | NT-proBNP, Week 12 Mean ± SD (NT-proBNP; Canada (n = 59)): 1338 ± 1504 pg/mL | NT-proBNP, Week 12 Median (NT-proBNP; Canada (n = 59)): 845 pg/mL | NT-proBNP, Week 24 Mean ± SD (NT-proBNP; Canada (n = 59)): 1382 ± 1974 pg/mL | NT-proBNP, Week 24 Median (NT-proBNP; Canada (n = 59)): 623 pg/mL | NT-proBNP, Week 4 Mean (NT-proBNP; Entire Cohort): 1212 pg/mL | NT-proBNP, Week 4 Median (NT-proBNP; Entire Cohort): 792 pg/mL | NT-proBNP, ΔWeek 4 Mean ± SEM (NT-proBNP; Entire Cohort): -50 pg/mL | NT-proBNP, ΔWeek 4 Median (NT-proBNP; Entire Cohort): -35 pg/mL | NT-proBNP, Baseline Median (NT-proBNP; Entire Cohort (n = 267)): 861 pg/mL | NT-proBNP, Week 12 Mean ± SD (NT-proBNP; Entire Cohort (n = 267)): 1134 ± 1197 pg/mL | NT-proBNP, Week 12 Median (NT-proBNP; Entire Cohort (n = 267)): 652 pg/mL | NT-proBNP, Week 24 Mean ± SD (NT-proBNP; Entire Cohort (n = 267)): 1334 ± 1732 pg/mL | NT-proBNP, Week 24 Median (NT-proBNP; Entire Cohort (n = 267)): 661 pg/mL | NT-proBNP, Week 4 Mean (NT-proBNP; Europe excluding Hungary): 820 pg/mL | NT-proBNP, Week 4 Median (NT-proBNP; Europe excluding Hungary): 433 pg/mL | NT-proBNP, ΔWeek 4 Mean ± SEM (NT-proBNP; Europe excluding Hungary): -117 pg/mL | NT-proBNP, ΔWeek 4 Median (NT-proBNP; Europe excluding Hungary): -93 pg/mL | NT-proBNP, Baseline Mean ± SD (NT-proBNP; [2]): 883 ± 880 pg/mL | NT-proBNP, Baseline Median (NT-proBNP; [2]): 521 pg/mL | NT-proBNP, Week 12 Mean ± SD (NT-proBNP; [2]): 867 ± 885 pg/mL | NT-proBNP, Week 12 Median (NT-proBNP; [2]): 526 pg/mL | NT-proBNP, Week 24 Mean ± SD (NT-proBNP; [2]): 1108 ± 962 pg/mL | NT-proBNP, Week 4 Mean (NT-proBNP; Hungary): 812 pg/mL | NT-proBNP, Week 4 Median (NT-proBNP; Hungary): 803 pg/mL | NT-proBNP, ΔWeek 4 Mean ± SEM (NT-proBNP; Hungary): -11 pg/mL | NT-proBNP, ΔWeek 4 Median (NT-proBNP; Hungary): -40 pg/mL | NT-proBNP, Baseline Mean ± SD (NT-proBNP; Hungary (n = 33)): 781 ± 458 pg/mL | NT-proBNP, Baseline Median (NT-proBNP; Hungary (n = 33)): 785 pg/mL | NT-proBNP, Week 12 Mean ± SD (NT-proBNP; Hungary (n = 33)): 864 ± 876 pg/mL | NT-proBNP, Week 12 Median (NT-proBNP; Hungary (n = 33)): 593 pg/mL | NT-proBNP, Week 24 Mean ± SD (NT-proBNP; Hungary (n = 33)): 1150 ± 784 pg/mL | NT-proBNP, Week 24 Median (NT-proBNP; Hungary (n = 33)): 1019 pg/mL | NT-proBNP, Week 4 Mean (NT-proBNP; U.S.): 1227 pg/mL | NT-proBNP, Week 4 Median (NT-proBNP; U.S.): 831 pg/mL | NT-proBNP, ΔWeek 4 Mean ± SEM (NT-proBNP; U.S.): -14 pg/mL | NT-proBNP, ΔWeek 4 Median (NT-proBNP; U.S.): -27 pg/mL | NT-proBNP, Baseline Mean ± SD (NT-proBNP; U.S. (n = 127)): 1499 ± 2033 pg/mL | NT-proBNP, Baseline Median (NT-proBNP; U.S. (n = 127)): 982 pg/mL | NT-proBNP, Week 12 Mean ± SD (NT-proBNP; U.S. (n = 127)): 1224 ± 1240 pg/mL | NT-proBNP, Week 12 Median (NT-proBNP; U.S. (n = 127)): 661 pg/mL | NT-proBNP, Week 24 Mean ± SD (NT-proBNP; U.S. (n = 127)): 1374 ± 1839 pg/mL | NT-proBNP, Week 24 Median (NT-proBNP; U.S. (n = 127)): 547 pg/mL | NT-proBNP, ΔWeek 12 Mean ± SEM (NT-proBNP; [3]): -482 ± 355 pg/mL | NT-proBNP, ΔWeek 12 Median (NT-proBNP; [3]): -36 pg/mL | NT-proBNP, ΔWeek 24 Mean ± SEM (NT-proBNP; [3]): -489 ± 361 pg/mL | NT-proBNP, ΔWeek 24 Median (NT-proBNP; [3]): -106 pg/mL | NT-proBNP, ΔWeek 12 Mean ± SEM (NT-proBNP; [4]): -135 ± 124 pg/mL | NT-proBNP, ΔWeek 12 Median (NT-proBNP; [4]): -50 pg/mL | NT-proBNP, ΔWeek 24 Median (NT-proBNP; [4]): -100 pg/mL | NT-proBNP, ΔWeek 12 Mean ± SEM (NT-proBNP; [5]): -70 ± 184 pg/mL | NT-proBNP, ΔWeek 12 Median (NT-proBNP; [5]): -20 pg/mL | NT-proBNP, ΔWeek 24 Mean ± SEM (NT-proBNP; [5]): -133 ± 153 pg/mL | NT-proBNP, ΔWeek 24 Median (NT-proBNP; [5]): -101 pg/mL | NT-proBNP, ΔWeek 12 Mean ± SEM (NT-proBNP; [6]): +45 ± 190 pg/ml | NT-proBNP, ΔWeek 12 Median (NT-proBNP; [6]): +75 pg/ml | NT-proBNP, ΔWeek 24 Mean ± SEM (NT-proBNP; [6]): +201 ± 219 pg/ml | NT-proBNP, ΔWeek 24 Median (NT-proBNP; [6]): +150 pg/ml | NT-proBNP, ΔWeek 12 Mean ± SEM (NT-proBNP; [7]): -63 ± 190 pg/mL | NT-proBNP, ΔWeek 12 Median (NT-proBNP; [7]): -99 pg/mL | NT-proBNP, ΔWeek 24 Mean ± SEM (NT-proBNP; [7]): -158 ± 258 pg/mL | NT-proBNP, ΔWeek 24 Median (NT-proBNP; [7]): -135 pg/mL | NT-proBNP, ΔWeek 4 Median (NT-proBNP; change from baseline, entire cohort): -35 pg/mL | NT-proBNP decrease (NT-proBNP; end of the 24-week follow-up period, U.S.): 20% | Lowering of AF risk ([1]; HFrEF (MERIT-HF)): 48% | Incidence of AF recurrence ([1]; persistent AF, ECV to SR, end of 6-month follow-up): 52%
